Results reported in PubChem BioAssay (NCI).
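Interpolation was linear, between the two tested concentrations surrounding the appropriate level; five concentrations were tested over 48 hours in 96-well plates. Here, GI50 denotes the concentration required for 50% inhibition of growth. TGI is the concentration that stops growth completely.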

Assays:
Assay in all cases: NCI tumour cell line growth inhibition, 48 h
NCI-H522 lung = test system: NCI-H522 lung
NCI-H23 lung = test system: NCI-H23 lung
SK-OV-3 ovarian = test system: SK-OV-3 ovarian
KM12 colon = test system: KM12 colon
OVCAR-8 ovarian = test system: OVCAR-8 ovarian
COLO 205 colon = test system: COLO 205 colon
SF-268 CNS = test system: SF-268 CNS
HCT-116 colon = test system: HCT-116 colon
MCF7 breast = test system: MCF7 breast
IGROV1 ovarian = test system: IGROV1 ovarian
NCI-H226 lung = test system: NCI-H226 lung
M14 melanoma = test system: M14 melanoma
SF-539 CNS = test system: SF-539 CNS
RPMI-8226 leukemia = test system: RPMI-8226 leukemia
OVCAR-4 ovarian = test system: OVCAR-4 ovarian
SK-MEL-28 melanoma = test system: SK-MEL-28 melanoma
786-0 renal = test system: 786-0 renal
UACC-257 melanoma = test system: UACC-257 melanoma
MALME-3M melanoma = test system: MALME-3M melanoma
RXF 393 renal = test system: RXF 393 renal
DU-145 prostate = test system: DU-145 prostate
HS 578T breast = test system: HS 578T breast
LOX IMVI melanoma = test system: LOX IMVI melanoma
UACC-62 melanoma = test system: UACC-62 melanoma
NCI/ADR-RES ovarian = test system: NCI/ADR-RES ovarian
SF-295 CNS = test system: SF-295 CNS
A549 NSCLC = test system: A549 NSCLC
A498 renal = test system: A498 renal
EKVX NSCLC = test system: EKVX NSCLC
HOP-92 NSCLC = test system: HOP-92 NSCLC
SNB-75 CNS = test system: SNB-75 CNS
PC-3 prostate = test system: PC-3 prostate
SK-MEL-2 melanoma = test system: SK-MEL-2 melanoma
U251 CNS = test system: U251 CNS
SK-MEL-5 melanoma = test system: SK-MEL-5 melanoma
TK-10 renal = test system: TK-10 renal
SN12C renal = test system: SN12C renal
HOP-62 NSCLC = test system: HOP-62 NSCLC
BT-549 breast = test system: BT-549 breast
ACHN renal = test system: ACHN renal
HCT-15 colon = test system: HCT-15 colon
OVCAR-3 ovarian = test system: OVCAR-3 ovarian
CAKI-1 renal = test system: CAKI-1 renal
OVCAR-5 ovarian = test system: OVCAR-5 ovarian
HT29 colon = test system: HT29 colon
MDA-MB-231 breast = test system: MDA-MB-231 breast
MDA-MB-435 = test system: MDA-MB-435
SNB-19 CNS = test system: SNB-19 CNS
NCI-H460 lung = test system: NCI-H460 lung
HCC-2998 colon = test system: HCC-2998 colon
T-47D breast = test system: T-47D breast
SW-620 colon = test system: SW-620 colon
UO-31 renal = test system: UO-31 renal

With `CCCCCc1cc[n+](CC(=O)c2ccc([N+](=O)[O-])cc2)cc1` the GI50 (NCI-H522 lung) was 1.8 µM, the TGI (NCI-H522 lung) was 8.53 µM and the GI50 (NCI-H23 lung) was 2.89 µM. For the same compound, the TGI (NCI-H23 lung) was 11.9 µM, the GI50 (SK-OV-3 ovarian) was 13.1 µM and the TGI (SK-OV-3 ovarian) was 46.3 µM. The GI50 (KM12 colon) was 3.69 µM, the TGI (KM12 colon) was 14.1 µM and the GI50 (OVCAR-8 ovarian) was 5.85 µM. The TGI (OVCAR-8 ovarian) was 39.6 µM, the GI50 (COLO 205 colon) was 1.62 µM and the TGI (COLO 205 colon) was 2.97 µM. The GI50 (SF-268 CNS) was 19.4 µM, the TGI (SF-268 CNS) was over 100 µM and the GI50 (HCT-116 colon) was 3.14 µM. The TGI (HCT-116 colon) was 11.4 µM, the GI50 (MCF7 breast) was 3.37 µM and the TGI (MCF7 breast) was 13.4 µM. The GI50 (IGROV1 ovarian) was 10.1 µM, the TGI (IGROV1 ovarian) was 24.4 µM and the GI50 (NCI-H226 lung) was 6.73 µM. For the same compound, the TGI (NCI-H226 lung) was 24.4 µM, the GI50 (M14 melanoma) was 7.03 µM and the TGI (M14 melanoma) was 22.7 µM. For the same compound, the GI50 (SF-539 CNS) was 20.3 µM, the TGI (SF-539 CNS) was 72.1 µM and the GI50 (RPMI-8226 leukemia) was 3.18 µM. It also gave a TGI (RPMI-8226 leukemia) of 17 µM, a GI50 (OVCAR-4 ovarian) of 2.53 µM and a TGI (OVCAR-4 ovarian) of 13.1 µM. For the same compound, the GI50 (SK-MEL-28 melanoma) was 28.9 µM, the TGI (SK-MEL-28 melanoma) was over 100 µM and the GI50 (786-0 renal) was 20.1 µM. The TGI (786-0 renal) was 74.2 µM, the GI50 (UACC-257 melanoma) was 2.28 µM and the TGI (UACC-257 melanoma) was 7.08 µM. The GI50 (MALME-3M melanoma) was 2.15 µM, the TGI (MALME-3M melanoma) was 8 µM and the GI50 (RXF 393 renal) was 24.3 µM. For the same compound, the TGI (RXF 393 renal) was 94.4 µM, the GI50 (DU-145 prostate) was 8.72 µM and the TGI (DU-145 prostate) was 37.8 µM. The GI50 (HS 578T breast) was 10.2 µM, the TGI (HS 578T breast) was 36.5 µM and the GI50 (LOX IMVI melanoma) was 8.15 µM. For the same compound, the TGI (LOX IMVI melanoma) was 22.1 µM, the GI50 (UACC-62 melanoma) was 10.8 µM and the TGI (UACC-62 melanoma) was 24.1 µM. It also gave a GI50 (NCI/ADR-RES ovarian) of 18.5 µM, a TGI (NCI/ADR-RES ovarian) of 52.2 µM and a GI50 (SF-295 CNS) of 6.52 µM. It also gave a TGI (SF-295 CNS) of 24.3 µM, a GI50 (A549 NSCLC) of 4.39 µM and a TGI (A549 NSCLC) of 15 µM. It also gave a GI50 (A498 renal) of 10.4 µM, a TGI (A498 renal) of 24.6 µM and a GI50 (EKVX NSCLC) of 3.5 µM. For the same compound, the TGI (EKVX NSCLC) was 17.5 µM, the GI50 (HOP-92 NSCLC) was 2.2 µM and the TGI (HOP-92 NSCLC) was 9.84 µM. It also gave a GI50 (SNB-75 CNS) of 10.9 µM, a TGI (SNB-75 CNS) of 26.6 µM and a GI50 (PC-3 prostate) of 4.14 µM. The TGI (PC-3 prostate) was 34.7 µM, the GI50 (SK-MEL-2 melanoma) was 2.7 µM and the TGI (SK-MEL-2 melanoma) was 8.66 µM. The GI50 (U251 CNS) was 4.44 µM, the TGI (U251 CNS) was 28.2 µM and the GI50 (SK-MEL-5 melanoma) was 1.95 µM. The TGI (SK-MEL-5 melanoma) was 4.56 µM, the GI50 (TK-10 renal) was 9.65 µM and the TGI (TK-10 renal) was 33.7 µM. For the same compound, the GI50 (SN12C renal) was 9.63 µM, the TGI (SN12C renal) was over 100 µM and the GI50 (HOP-62 NSCLC) was 3.94 µM. It also gave a TGI (HOP-62 NSCLC) of 28.3 µM, a GI50 (BT-549 breast) of 4.15 µM and a TGI (BT-549 breast) of 20.5 µM. The GI50 (ACHN renal) was 11 µM, the TGI (ACHN renal) was 45.1 µM and the GI50 (HCT-15 colon) was 13.6 µM. The TGI (HCT-15 colon) was 49.9 µM, the GI50 (OVCAR-3 ovarian) was 2.78 µM and the TGI (OVCAR-3 ovarian) was 10.4 µM. For the same compound, the GI50 (CAKI-1 renal) was 11.2 µM, the TGI (CAKI-1 renal) was 34.8 µM and the GI50 (OVCAR-5 ovarian) was 22 µM. The TGI (OVCAR-5 ovarian) was 97.9 µM, the GI50 (HT29 colon) was 2.39 µM and the TGI (HT29 colon) was 8.32 µM. It also gave a GI50 (MDA-MB-231 breast) of 6.46 µM, a TGI (MDA-MB-231 breast) of 35.7 µM and a GI50 (MDA-MB-435) of 3.7 µM. For the same compound, the TGI (MDA-MB-435) was 14.6 µM, the GI50 (SNB-19 CNS) was 8.01 µM and the TGI (SNB-19 CNS) was over 100 µM. It also gave a GI50 (NCI-H460 lung) of 3.09 µM, a TGI (NCI-H460 lung) of 11.6 µM and a GI50 (HCC-2998 colon) of 4.94 µM. It also gave a TGI (HCC-2998 colon) of 17.6 µM, a GI50 (T-47D breast) of 6.02 µM and a TGI (T-47D breast) of 28.2 µM. The GI50 (SW-620 colon) was 3.22 µM, the TGI (SW-620 colon) was over 100 µM and the GI50 (UO-31 renal) was 4.61 µM. For the same compound, the TGI (UO-31 renal) was 43.6 µM.
